These are literature values, as cited in PMC10930102 (Journal of Enzyme Inhibition and Medicinal Chemistry, 2024).

Data set [1] addresses T1, IGF1R (Homo sapiens, UniProt P08069).
T1 construct: purchased Reaction Biology Corporation
Set-up: method as in PMID 22734674. The note with it: cited from earlier work.

Data set [2] has as its target T2, c-Src (Homo sapiens, UniProt P12931).
T2 construct: purchased Reaction Biology Corporation
Set-up: method as in PMID 22734674. The note with it: cited from earlier work.

T2 sequence (P12931 whole entry): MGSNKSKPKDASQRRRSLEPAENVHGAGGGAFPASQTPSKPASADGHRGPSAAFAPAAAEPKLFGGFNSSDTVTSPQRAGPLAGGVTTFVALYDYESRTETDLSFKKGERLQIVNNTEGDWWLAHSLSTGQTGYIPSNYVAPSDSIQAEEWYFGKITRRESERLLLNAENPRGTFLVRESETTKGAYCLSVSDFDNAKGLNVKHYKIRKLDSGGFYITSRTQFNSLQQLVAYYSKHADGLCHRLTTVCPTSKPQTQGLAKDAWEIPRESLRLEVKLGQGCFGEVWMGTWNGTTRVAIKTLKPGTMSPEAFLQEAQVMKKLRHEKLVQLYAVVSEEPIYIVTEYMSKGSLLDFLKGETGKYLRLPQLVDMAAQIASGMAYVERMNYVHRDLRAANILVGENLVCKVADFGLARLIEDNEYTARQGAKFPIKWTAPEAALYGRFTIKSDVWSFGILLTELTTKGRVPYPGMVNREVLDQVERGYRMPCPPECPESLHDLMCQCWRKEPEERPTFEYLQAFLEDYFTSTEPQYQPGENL
T1 sequence (P08069 31-1367): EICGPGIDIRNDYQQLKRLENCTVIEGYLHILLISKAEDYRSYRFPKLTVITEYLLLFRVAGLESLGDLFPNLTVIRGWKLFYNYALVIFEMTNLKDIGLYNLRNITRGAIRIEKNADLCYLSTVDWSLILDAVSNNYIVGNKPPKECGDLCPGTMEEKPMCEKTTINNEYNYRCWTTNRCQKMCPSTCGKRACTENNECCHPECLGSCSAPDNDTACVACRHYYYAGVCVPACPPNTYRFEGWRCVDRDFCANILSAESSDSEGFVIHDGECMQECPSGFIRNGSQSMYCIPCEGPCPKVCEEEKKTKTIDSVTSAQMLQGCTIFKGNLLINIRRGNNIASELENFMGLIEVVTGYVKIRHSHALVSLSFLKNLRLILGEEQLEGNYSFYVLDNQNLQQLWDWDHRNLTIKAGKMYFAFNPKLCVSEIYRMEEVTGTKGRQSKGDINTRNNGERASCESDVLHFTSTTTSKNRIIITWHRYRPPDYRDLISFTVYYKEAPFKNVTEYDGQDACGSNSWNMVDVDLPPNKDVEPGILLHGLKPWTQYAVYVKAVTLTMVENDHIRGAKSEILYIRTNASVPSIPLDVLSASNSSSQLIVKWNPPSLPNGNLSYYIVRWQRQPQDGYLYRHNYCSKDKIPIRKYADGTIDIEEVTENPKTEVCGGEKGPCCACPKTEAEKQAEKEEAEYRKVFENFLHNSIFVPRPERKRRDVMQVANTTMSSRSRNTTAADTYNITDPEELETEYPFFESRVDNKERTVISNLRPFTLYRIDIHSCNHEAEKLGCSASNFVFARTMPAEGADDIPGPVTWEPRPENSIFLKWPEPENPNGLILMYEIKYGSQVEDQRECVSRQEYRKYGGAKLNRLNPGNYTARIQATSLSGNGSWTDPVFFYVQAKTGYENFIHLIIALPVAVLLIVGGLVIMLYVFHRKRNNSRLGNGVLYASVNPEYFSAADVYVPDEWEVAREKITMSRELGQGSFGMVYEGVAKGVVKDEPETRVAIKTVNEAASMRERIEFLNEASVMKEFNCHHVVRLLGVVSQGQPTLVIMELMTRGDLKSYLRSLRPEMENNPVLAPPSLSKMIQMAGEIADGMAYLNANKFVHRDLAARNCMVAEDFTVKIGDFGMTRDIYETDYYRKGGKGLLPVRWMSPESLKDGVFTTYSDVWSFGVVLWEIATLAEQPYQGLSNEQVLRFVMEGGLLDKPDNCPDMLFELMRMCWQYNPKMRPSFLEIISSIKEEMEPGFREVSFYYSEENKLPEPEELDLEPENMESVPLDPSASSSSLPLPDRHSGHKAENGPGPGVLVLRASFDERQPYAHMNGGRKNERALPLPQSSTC

With `CC(C)NC(=O)[C@H]1CC[C@@H](n2/c(=N/C(=O)c3cc(F)cc(F)c3)[nH]c3ccc(CN4CCC(C(C)(C)O)CC4)cc32)CC1` [Compound 1], the IC50 in data set [1] is 100 nM; in data set [2], 420 nM.

A word on the IC50: it is the midpoint of a concentration-inhibition curve.
